In one test the target is r-NAAA (Rattus norvegicus (Rat), UniProt Q5KTC7). The test is described as follows: r-NAAA inhibition, rat lung lysosomal NAAA preparation, UPLC/MS. It is filed as biochemical. Summed up: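 Substrate was 50 μM heptadecenoylethanolamide, incubated 30 min at 37 °C after a 30 min compound preincubation at pH 4.5 with 1% Triton-X and 3 mM DTT. The enzyme source was rat lung lysosomal preparation. IC50 came from curve fitting of reduced heptadecenoic acid product, measured by negative-mode UPLC/MS versus vehicle.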

The target in a further test is h-NAAA (Homo sapiens (Human), UniProt Q02083). The test is described as follows: Fluorogenic h-NAAA assay. It is filed as biochemical. As to the method: (§1) The assay was run in Optiplate 96-wells black plates, in a total reaction volume of 200 mL. NAAA protein preparations (4 ng) were pre-incubated for 10 minutes with various concentrations of test compounds or vehicle control (5% DMSO) in 100 mM citrate/phosphate buffer (pH 4.5) containing 3.0 mM DTT, 0.1% Triton X-100, 0.05% BSA, 150 mM NaCl. N-(4-methyl-2-oxo-chromen-7-yl)-hexadecanamide was used as a substrate (5.0 μM) and the reaction carried over for 30 minutes at 37° C. Fluorescence in the samples was quantified in a Perkin Elmer Envision plate reader using an excitation wavelength of 360 nm and emission 460 nm. IC50 values were calculated by non-linear regression analysis of log [concentration]/inhibition curves using GraphPad Prism 5 (GraphPad Software Inc., CA—USA) applying a standard slope curve fitting.
as §1, with “μL.” for “mL.”, “preparation (4.0 μg) was” for “preparations (4 ng) were”, “min” for “minutes”, “The” for “Fluorescence in the”, “were then read” for “was quantified”

The subject of the next test is UVB-induced inflammation. Nature of the test: UV-B irradiation model in rats, plantar test. It is filed as in vivo, rat. Here is the method: Male Sprague Dawley rats (150-175 g, Charles River, Calco, Italy) were anaesthetized with a mixture of Tiletamine (15 mg/Kg) and Zolazepam (15 mg/Kg) administered in a single intra-peritoneal injection. Rats were then placed on their backs and shrouded in a UV opaque material with only the relevant surface of the plantar right hind paw exposed, perpendicular to the narrowband UVB light source situated above the level of the limb. The UVB source used for all experiments consisted of a bank of four TL01 fluorescent tubes (Philips, UK, λmax=312 nm) spaced 2.5 cm apart producing an even field of irradiation. The irradiance produced by the bulbs during each irradiation was determinate at the distance of the limb from the light source using a calibrate meter (I[…] with SEL240/UVB-1/TD filter, ABLE Instruments & Controls Ltd, UK). From this, the doses of UVB to which the rats were exposed were calculated. After plantar irradiation, nociceptive withdrawal responses to both thermal and mechanical stimuli were tested. Heat hypersensitivity was assessed using the rat plantar test equipment (Ugo Basile, Italy) following the method described by Hargreaves et al. (1988). […] Uninjured paw was always assessed first. […] The withdrawal threshold is calculated as the average of three consecutive tests with at list 5 minutes between each test. […]

Sequence of h-NAAA (Q02083 29-359): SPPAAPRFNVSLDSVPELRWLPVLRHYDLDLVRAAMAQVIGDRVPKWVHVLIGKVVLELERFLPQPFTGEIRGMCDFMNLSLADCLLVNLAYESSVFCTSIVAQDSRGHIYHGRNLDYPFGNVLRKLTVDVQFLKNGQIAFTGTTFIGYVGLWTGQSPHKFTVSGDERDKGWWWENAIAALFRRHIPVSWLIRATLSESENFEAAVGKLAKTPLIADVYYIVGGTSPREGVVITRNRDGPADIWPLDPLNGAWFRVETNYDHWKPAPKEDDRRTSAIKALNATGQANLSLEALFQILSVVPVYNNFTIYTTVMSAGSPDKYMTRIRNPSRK
Sequence of r-NAAA (Q5KTC7 34-362): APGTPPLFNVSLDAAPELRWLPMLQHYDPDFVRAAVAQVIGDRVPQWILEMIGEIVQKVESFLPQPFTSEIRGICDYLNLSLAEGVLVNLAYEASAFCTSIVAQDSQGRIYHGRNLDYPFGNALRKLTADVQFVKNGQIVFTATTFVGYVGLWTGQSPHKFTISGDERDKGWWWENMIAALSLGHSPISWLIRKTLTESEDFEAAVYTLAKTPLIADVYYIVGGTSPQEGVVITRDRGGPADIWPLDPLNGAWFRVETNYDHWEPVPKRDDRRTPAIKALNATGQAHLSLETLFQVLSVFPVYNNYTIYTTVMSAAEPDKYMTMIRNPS

For orientation: IC50 means the midpoint of a concentration-inhibition curve. A higher IC50 goes with weaker potency. As for `C[C@@H]1OC(=O)[C@@H]1NC(=O)OCCCCCc1ccccc1` [Example 6, 5-phenylpentyl-[(2S,3R)-2-methyl-4-oxooxetan-3-yl]-carbamate], the IC50 against r-NAAA is 50 nM; on h-NAAA, 14 nM. Moreover, the “Thermal hyperalgesia induced by irradiation with 250 mJ/cm^2 of UVB” value in the test with UVB-induced inflammation (10 and 30% w/w, vs vehicle) was “significantly reduced”. Further, the UVB-induced inflammation result in the test with UVB-induced inflammation (topical suspension in vaseline oil plus 5% lauric acid) is “dose-dependently reduced the UVB-induced inflammation”.

(Values after patent US9353075B2, “Disubstituted beta-lactones as inhibitors of N-acylethanolamine acid amidase (NAAA)” (The Regents of the University of California, priority 2011, dated 2016).)
